Assays:
[1] = logP; assay type: physicochemical
[2] = target: KCa3.1 (Homo sapiens, UniProt O15554+P0DP23); assay: Inside-out patch Ca2+ concentration-response of KCa3.1
Description: Symmetrical k^+ was used to obtain larger currents. […] Cells were clamped to a holding potential of at 0 mV and KCa currents were elicited by 200-ms voltage-ramps from −80 to 80 mV applied every 10 sec.

Structure (SMILES): Cc1cc2nc(N)oc2c2ccccc12 [SKA-121, 5-Methylnaphtho[2,1-d]oxazol-2-amine]
- logP [1]: 1.79
- maximal achievable KCa3.1 current ([2]; 1 μM SKA-121, at 1 and 10 μM Ca2+): increased the maximal achievable current
- Hill coefficient of the Ca2+ concentration-response curve ([2]; in presence of 1 μM SKA-121): ~3

Source: US11173146B2, “Selective activators of the intermediate conductance CA2+activated K+ channel KCa3.1 and their methods of use” (The Regents of the University of California, priority 2014, dated 2021)
